From patent US20250197387A1, “BCL-XL DEGRADERS AND USES THEREOF” (Kymera Therapeutics, Inc., priority 2021, published 2025)
Read-outs that look alike come from different tables or passages of the source.

How the values were obtained:
Assay type in all cases: cell-based
BCL-XL = target: T1, BCL-XL (Homo sapiens, UniProt Q07817); test: Bcl-xL ELISA degradation in MOLT-4 cells, 6 h; details: for DC50: read-out: Bcl-xL ELISA in MOLT-4 degradation 6 h: Mean external-Abs DC50
T1 construct: endogenous in cells; host or cells: MOLT-4
T1 sequence (Q07817 whole entry): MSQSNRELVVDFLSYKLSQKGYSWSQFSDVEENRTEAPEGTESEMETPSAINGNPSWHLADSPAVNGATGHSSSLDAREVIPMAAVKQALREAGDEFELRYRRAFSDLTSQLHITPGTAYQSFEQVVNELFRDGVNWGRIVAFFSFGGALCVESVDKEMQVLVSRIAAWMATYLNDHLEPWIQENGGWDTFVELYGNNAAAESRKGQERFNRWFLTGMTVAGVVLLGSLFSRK
Method: The letter codes for BCL-XL DC50 include: A (<0.01 μM); B (0.01-0.1 μM); C (>[…]); D (>0.5-1.0 μM); and E (>1.0 μM). The letter codes for Dmax % include A (>75%); B (50 to 75%); C (<50%).

MOLT-4 cells = test: CTG (CellTiter-Glo) cell viability assay, MOLT-4; details: Homo sapiens, 3 day incubation, read-out: CTG Cell Viability Assay - MOLT-4 3 day: Average external-IC50
How it was run: (§1)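 MOLT-4 and Caki-2 cells at 10,000 cells/well exposed 3 days at 37° C., 5% CO2 to 9 doses (1:3, top 10 μM, 0.2% DMSO). Viability by CellTiter-Glo luminescence; IC50 from three-parameter logistic fit.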

Caki-2 cells = test: CTG (CellTiter-Glo) cell viability assay, Caki-2; details: Homo sapiens, 72 h, 3 day incubation, read-out: CTG Chempartner - Caki-2 3 day: Average external-IC50
How it was run: as §1

SMILES: Cc1ncsc1-c1ccc(CNC(=O)[C@@H]2C[C@@H](O)CN2C(=O)[C@@H](NC(=O)C2CN(c3ccc(S(=O)(=O)NC(=O)c4nc(N5CCc6cccc(C(=O)Nc7nc8ccccc8s7)c6C5)ccc4-c4cnn(CC5CCCCC5)c4C)cc3F)C2)C(C)(C)C)cc1 [I-330]
- Dmax (BCL-XL): 50 to 75%
- DC50 (BCL-XL): 10 to 100 nM
- IC50 (MOLT-4 cells; MOLT-4, 72 h): < 100 nM
- IC50 (Caki-2 cells): 1000 to 10000 nM

SMILES: Cc1ncsc1-c1ccc([C@H](C)NC(=O)[C@@H]2C[C@@H](O)CN2C(=O)[C@@H](NC(=O)CCCS(=O)(=O)NC(=O)c2nc(N3CCc4cccc(C(=O)Nc5nc6cccnc6s5)c4C3)ccc2-c2cnn(CC3CCCCC3)c2C)C(C)(C)C)cc1 [I-331]
- Dmax (BCL-XL): 50 to 75%
- DC50 (BCL-XL): 100 to 500 nM
- IC50 (MOLT-4 cells; MOLT-4, 72 h): 100 to 1000 nM
- IC50 (Caki-2 cells): > 10000 nM

SMILES: Cc1ncsc1-c1ccc([C@H](C)NC(=O)[C@@H]2C[C@@H](O)CN2C(=O)[C@@H](NC(=O)C2CCN(c3ccc(S(=O)(=O)NC(=O)c4nc(N5CCc6cccc(C(=O)Nc7nc8ccccc8s7)c6C5)ccc4-c4ccnc(N(C)C(C)C)c4C)cc3)CC2)C(C)(C)C)cc1 [I-332]
- Dmax (BCL-XL): > 75%
- DC50 (BCL-XL): 10 to 100 nM
- IC50 (MOLT-4 cells; MOLT-4, 72 h): 100 to 1000 nM
- IC50 (Caki-2 cells): > 10000 nM

SMILES: Cc1ncsc1-c1ccc([C@H](C)NC(=O)[C@@H]2C[C@@H](O)CN2C(=O)[C@@H](NC(=O)CCCCCS(=O)(=O)NC(=O)c2nc(N3CCc4cccc(C(=O)Nc5nc6ccccc6s5)c4C3)ccc2-c2ccnc(N(C)C(C)C)c2C)C(C)(C)C)cc1 [I-333]
- Dmax (BCL-XL): 50 to 75%
- DC50 (BCL-XL): 100 to 500 nM
- IC50 (MOLT-4 cells; MOLT-4, 72 h): 100 to 1000 nM
- IC50 (Caki-2 cells): > 10000 nM

SMILES: Cc1ncsc1-c1ccc([C@H](C)NC(=O)[C@@H]2C[C@@H](O)CN2C(=O)[C@@H](NC(=O)C2CCN(c3ccc(S(=O)(=O)NC(=O)c4nc(N5CCc6cccc(C(=O)Nc7nc8ccccc8s7)c6C5)ccc4-c4cnn(CC5CCCCC5)c4C)cc3COP(=O)(O)O)CC2)C(C)(C)C)cc1 [I-334]
- Dmax (BCL-XL): > 75%
- DC50 (BCL-XL): 100 to 500 nM
- IC50 (MOLT-4 cells; MOLT-4, 72 h): 1000 to 3000 nM
- IC50 (Caki-2 cells): 1000 to 10000 nM

SMILES: Cc1ncsc1-c1ccc([C@H](C)NC(=O)[C@@H]2C[C@@H](O)CN2C(=O)[C@@H](NC(=O)CN2CCC(CS(=O)(=O)NC(=O)c3nc(N4CCc5cccc(C(=O)Nc6nc7ccccc7s6)c5C4)ccc3-c3cnn(CC4CCCCC4)c3C)CC2)C(C)(C)C)cc1 [I-335]
- Dmax (BCL-XL): > 75%
- DC50 (BCL-XL): < 10 nM
- IC50 (MOLT-4 cells; 72 h): < 100 nM
- IC50 (Caki-2 cells): 1000 to 10000 nM

SMILES: Cc1ncsc1-c1ccc([C@H](C)NC(=O)[C@@H]2C[C@@H](O)CN2C(=O)[C@@H](NC(=O)N2CC(CN3CCC(S(=O)(=O)NC(=O)c4nc(N5CCc6cccc(C(=O)Nc7nc8ccccc8s7)c6C5)ccc4-c4cnn(CC5CCCCC5)c4C)CC3)C2)C(C)(C)C)cc1 [I-336]
- Dmax (BCL-XL): > 75%
- DC50 (BCL-XL): 10 to 100 nM
- IC50 (MOLT-4 cells; MOLT-4, 72 h): 1000 to 3000 nM
- IC50 (Caki-2 cells): > 10000 nM

SMILES: Cc1ncsc1-c1ccc(CNC(=O)[C@@H]2C[C@@H](O)CN2C(=O)[C@@H](NC(=O)CCCc2cccc(S(=O)(=O)NC(=O)c3nc(N4CCc5cccc(C(=O)Nc6nc7ccccc7s6)c5C4)ccc3-c3cnn(CC4CCCCC4)c3C)c2)C(C)(C)C)cc1 [I-337]
- Dmax (BCL-XL): > 75%
- DC50 (BCL-XL): < 10 nM
- IC50 (MOLT-4 cells; MOLT-4, 72 h): < 100 nM
- IC50 (Caki-2 cells): > 10000 nM

SMILES: Cc1ncsc1-c1ccc(CNC(=O)[C@@H]2C[C@@H](O)CN2C(=O)[C@@H](NC(=O)C2CCN(c3ccc(S(=O)(=O)NC(=O)c4nc(N5CCc6cccc(C(=O)Nc7nc8ccccc8s7)c6C5)ccc4-c4cnn(CC5CCCCC5)c4C)c(F)c3)CC2)C(C)(C)C)cc1 [I-339]
- Dmax (BCL-XL): > 75%
- DC50 (BCL-XL): < 10 nM
- IC50 (MOLT-4 cells; MOLT-4, 72 h): < 100 nM
- IC50 (Caki-2 cells): 1000 to 10000 nM

SMILES: CCN1CCN(Cc2cc(S(=O)(=O)NC(=O)c3nc(N4CCc5cccc(C(=O)Nc6nc7ccccc7s6)c5C4)ccc3-c3cnn(CC4CCCCC4)c3C)ccc2N2CCC(C(=O)N[C@H](C(=O)N3C[C@H](O)C[C@H]3C(=O)NCc3ccc(-c4scnc4C)cc3)C(C)(C)C)CC2)CC1 [I-341]
- Dmax (BCL-XL): > 75%
- DC50 (BCL-XL): 10 to 100 nM
- IC50 (MOLT-4 cells; MOLT-4, 72 h): 100 to 1000 nM
- IC50 (Caki-2 cells): > 10000 nM

SMILES: Cc1ncsc1-c1ccc(CNC(=O)[C@@H]2C[C@@H](O)CN2C(=O)[C@@H](NC(=O)CCc2ccc(S(=O)(=O)NC(=O)c3nc(N4CCc5cccc(C(=O)Nc6nc7ccccc7s6)c5C4)ccc3-c3cnn(CC4CCCCC4)c3C)cn2)C(C)(C)C)cc1 [I-342]
- Dmax (BCL-XL): > 75%
- DC50 (BCL-XL): 100 to 500 nM
- IC50 (MOLT-4 cells; MOLT-4, 72 h): 100 to 1000 nM
- IC50 (Caki-2 cells): > 10000 nM

SMILES: Cc1ncsc1-c1ccc([C@H](C)NC(=O)[C@@H]2C[C@@H](O)CN2C(=O)[C@@H](NC(=O)C2CN(c3ccc(S(=O)(=O)NC(=O)c4nc(N5CCc6cccc(C(=O)Nc7nc8ccccc8s7)c6C5)ccc4-c4cnn(CC5CCCCC5)c4C)cc3)C2)C(C)(C)C)cc1 [I-343]
- Dmax (BCL-XL): > 75%
- DC50 (BCL-XL): 10 to 100 nM
- IC50 (MOLT-4 cells; MOLT-4, 72 h): < 100 nM
- IC50 (Caki-2 cells): 1000 to 10000 nM

SMILES: Cc1ncsc1-c1ccc([C@H](C)NC(=O)[C@@H]2C[C@@H](O)CN2C(=O)[C@@H](NC(=O)C2CCN(c3ccc(S(=O)(=O)NC(=O)c4nc(N5CCc6cccc(C(=O)Nc7nc8ccccc8s7)c6C5)ccc4-c4cnn(CC5CC5)c4C)cc3)CC2)C(C)(C)C)cc1 [I-344]
- Dmax (BCL-XL): > 75%
- DC50 (BCL-XL): 10 to 100 nM
- IC50 (MOLT-4 cells; MOLT-4, 72 h): 100 to 1000 nM
- IC50 (Caki-2 cells): > 10000 nM

SMILES: Cc1ncsc1-c1ccc([C@H](C)NC(=O)[C@@H]2C[C@@H](O)CN2C(=O)[C@@H](NC(=O)N2CC(Cc3ccc(S(=O)(=O)NC(=O)c4nc(N5CCc6cccc(C(=O)Nc7nc8ccccc8s7)c6C5)ccc4-c4cnn(CC5CCCCC5)c4C)cc3)C2)C(C)(C)C)cc1 [I-346]
- Dmax (BCL-XL): > 75%
- DC50 (BCL-XL): 10 to 100 nM
- IC50 (MOLT-4 cells; MOLT-4, 72 h): 100 to 1000 nM
- IC50 (Caki-2 cells): > 10000 nM

SMILES: Cc1ncsc1-c1ccc(CNC(=O)[C@@H]2C[C@@H](O)CN2C(=O)[C@@H](NC(=O)CCc2cc(F)c(S(=O)(=O)NC(=O)c3nc(N4CCc5cccc(C(=O)Nc6nc7ccccc7s6)c5C4)ccc3-c3cnn(CC4CCCCC4)c3C)c(F)c2)C(C)(C)C)cc1 [I-347]
- Dmax (BCL-XL): > 75%
- DC50 (BCL-XL): 10 to 100 nM
- IC50 (MOLT-4 cells; MOLT-4, 72 h): 100 to 1000 nM
- IC50 (Caki-2 cells): > 10000 nM

SMILES: Cc1ncsc1-c1ccc([C@H](C)NC(=O)[C@@H]2C[C@@H](O)CN2C(=O)[C@@H](NC(=O)C2CCN(c3ccc(S(=O)(=O)NC(=O)c4nc(N5CCc6cccc(C(=O)Nc7nc8ccccc8s7)c6C5)ccc4-c4cnn(CC5CCCC5)c4C)cc3)CC2)C(C)(C)C)cc1 [I-348]
- Dmax (BCL-XL): > 75%
- DC50 (BCL-XL): < 10 nM
- IC50 (MOLT-4 cells; MOLT-4, 72 h): < 100 nM
- IC50 (Caki-2 cells): > 10000 nM

SMILES: CCC(CC)Cn1ncc(-c2ccc(N3CCc4cccc(C(=O)Nc5nc6ccccc6s5)c4C3)nc2C(=O)NS(=O)(=O)c2ccc(N3CCC(C(=O)N[C@H](C(=O)N4C[C@H](O)C[C@H]4C(=O)N[C@@H](C)c4ccc(-c5scnc5C)cc4)C(C)(C)C)CC3)cc2)c1C [I-349]
- Dmax (BCL-XL): > 75%
- DC50 (BCL-XL): < 10 nM
- IC50 (MOLT-4 cells; MOLT-4, 72 h): < 100 nM
- IC50 (Caki-2 cells): > 10000 nM

SMILES: Cc1ncsc1-c1ccc([C@H](C)NC(=O)[C@@H]2C[C@@H](OC(=O)CCP(=O)(O)O)CN2C(=O)[C@@H](NC(=O)C2CCN(c3ccc(S(=O)(=O)NC(=O)c4nc(N5CCc6cccc(C(=O)Nc7nc8ccccc8s7)c6C5)ccc4-c4cnn(CC5CCCCC5)c4C)cc3)CC2)C(C)(C)C)cc1 [I-350]
- Dmax (BCL-XL): > 75%
- DC50 (BCL-XL): 10 to 100 nM
- IC50 (MOLT-4 cells; 72 h): 100 to 1000 nM
- IC50 (Caki-2 cells): 1000 to 10000 nM

SMILES: C#Cc1ccc(CNC(=O)[C@@H]2C[C@@H](O)CN2C(=O)[C@@H](NC(=O)CCCCCS(=O)(=O)NC(=O)c2nc(N3CCc4cccc(C(=O)Nc5nc6cccnc6s5)c4C3)ccc2-c2cnn(CC3CCCCC3)c2C)C(C)(C)C)cc1 [I-352]
- Dmax (BCL-XL): > 75%
- DC50 (BCL-XL): < 10 nM
- IC50 (MOLT-4 cells; MOLT-4, 72 h): < 100 nM
- IC50 (Caki-2 cells): > 10000 nM
